{
  "source": "patent US4695569A",
  "about": "“Bicyclic heterocyclyl containing N-(bicyclic heterocyclyl)-4-piperidinamines” (Janssen Pharmaceutica N.V., priority 1987, dated 1987)",
  "key": {"serotonin [1]": {"system": "serotonin", "conditions": "known serotonin-antagonists, rats treated with compound 48/80; cited from earlier work"}, "[2]": {"system": "compound 48/80-induced lethality", "assay": "Protection of rats from compound 48/80-induced lethality", "assay_type": "in vivo, rat (male, inbred Wistar strain)", "conditions": "Rattus norvegicus, 4 h, read-out: Compound 48/80 lethality test in rats-ED50", "protocol": "Protection of rats from compound 48/80-induced lethality\nThe protection from compound 48/80-induced lethal circulatory collapse appears to be a simple way of evaluating quantitatively the antihistaminic activity of test compounds. Male rats of an inbred Wistar strain, weighing 240-260 g were used in the experiment. After overnight starvation the rats were transferred to conditioned laboratories (temp.=21±1° C., relative humidity=65±5%).\nThe rats were treated subcutaneously or orally with a test compound or with the solvent (NaCl solution, 0.9%). […] Survival after 4 hours is therefore considered to be a safe criterion of a protective effect of drug administration.\nThe ED50 -values of the compounds of formula (I) are listed in the first column of table 1. Said ED50 -values are the values in mg/kg body weight at which the tested compounds protect 50% of the tested animals against compound 48/80-induced lethality."}, "serotonin [3]": {"system": "serotonin", "assay": "Antagonistic activity on the effects of serotonin in the gastric lesion test (lesions induced by compound 48/80)", "assay_type": "in vivo, rat (male, Wistar inbred strain)", "text": "The compounds of formula (I) and the pharmaceutically acceptable acid addition salts thereof are also potent serotonin-antagonists. The potency of the subject compounds as serotonin-antagonists is clearly evidenced by the results obtained in the following tests wherein the antagonistic activity of the subject compounds on the effect of serotonin is examined.\nAntagonistic activity on the effects of serotonin in the gastric lesion test\nComound 48/80 (a mixture of oligomers obtained by condensation of 4-methoxy-N-methylbenzeneethanamine and formaldehyde) is a potent releaser of vasoactive amines from endogenous stores such as, for example, histamine and serotonin. […] The shock, followed by dead, can be avoided if the rats are pretreated with a classical H 1 antagonist.\nMale rats of a Wistar inbred strain, weighing 220-250 g, were starved overnight, water being available ad libitum. The test compounds were administered orally as a solution or as a suspension in aqueous medium. A control rat and a \"blank\" rat received the test compound. One hour later 5-[4-(diphenylmethyl)-1-piperazinylmethyl]-1-methyl-1H-benzimidazole-2-methanol was administered subcutaneously to all rats at the dose of 2.5 mg/kg.\nFour hours after the intravenous injection of compound 48/80, the rats were decapitated and the stomachs were removed. Subsequently the stomachs ere inspected for distension and contents (blood, fluid, food) and thoroughly rinsed. The macroscopic lesions were scored from 0 to +++, 0 corresponding to complete absence of visible lesions and the highest score corresponding to reddish rough patches covering more than half the glandular area."}, "[4]": {"conditions": "Rattus norvegicus, po, 4 h; read-out: gastric lesion test ED50 (distension of the stomach and lesions in the glandular area completely absent in 50% of rats)"}},
  "note": "Like-named read-outs stand apart in the source and are kept apart here.",
  "data": [
    {"smiles": "O=C(CCCN1CCC2(CC1)C(=O)NCN2c1ccccc1)c1ccc(F)cc1", "note": "[spiperone]", "values": [
      {"measurement": "prevention of cyanosis of ears and extremities, lesions in the glandular area of the stomach and abnormal gastric distension", "setting": "serotonin [1]", "value": "prevent completely"}
    ]},
    {"smiles": "CN1C[C@H](CNC(=O)OCc2ccccc2)C[C@@H]2c3cccc4c3c(cn4C)C[C@H]21", "note": "[metergoline]", "values": [
      {"measurement": "prevention of cyanosis of ears and extremities, lesions in the glandular area of the stomach and abnormal gastric distension", "setting": "serotonin [1]", "value": "prevent completely"}
    ]},
    {"smiles": "CC[C@@H](CO)NC(=O)[C@@H]1C=C2c3cccc4c3c(cn4C)C[C@H]2N(C)C1", "note": "[methysergide]", "values": [
      {"measurement": "prevention of cyanosis of ears and extremities, lesions in the glandular area of the stomach and abnormal gastric distension", "setting": "serotonin [1]", "value": "prevent completely"}
    ]},
    {"smiles": "CN1CCC(=C2c3ccccc3CCc3sccc32)CC1", "note": "[pizotifen]", "values": [
      {"measurement": "prevention of cyanosis of ears and extremities, lesions in the glandular area of the stomach and abnormal gastric distension", "setting": "serotonin [1]", "value": "prevent completely"}
    ]},
    {"smiles": "CN1CCN2c3ccccc3Cc3ccccc3C2C1", "note": "(stereo not shown) [mianserin]", "values": [
      {"measurement": "prevention of cyanosis of ears and extremities, lesions in the glandular area of the stomach and abnormal gastric distension", "setting": "serotonin [1]", "value": "prevent completely"}
    ]},
    {"smiles": "CN(C)CCCSc1ccccc1NC(=O)/C=C/c1ccccc1", "note": "[cinanserin]", "values": [
      {"measurement": "prevention of cyanosis of ears and extremities, lesions in the glandular area of the stomach and abnormal gastric distension", "setting": "serotonin [1]", "value": "prevent completely"}
    ]},
    {"smiles": "NC(=O)C1(N2CCCCC2)CCN(CCCC(=O)c2ccc(F)cc2)CC1", "note": "[pipamperone]", "values": [
      {"measurement": "prevention of cyanosis of ears and extremities, lesions in the glandular area of the stomach and abnormal gastric distension", "setting": "serotonin [1]", "value": "prevent completely"}
    ]},
    {"smiles": "Cc1ccc2nc(C)c(CCN3CCC(Nc4nc5cccnc5n4Cc4ccco4)CC3)c(=O)n2c1", "note": "[Compound 20]", "values": [
      {"measurement": "ED50", "setting": "[2]", "value": 0.04, "unit": "mg/kg"},
      {"measurement": "ED50", "setting": "serotonin [3]; [4]", "value": 0.63, "unit": "mg/kg"}
    ]},
    {"smiles": "Cc1nc2n(c(=O)c1CCN1CCC(Nc3nc4cccnc4n3Cc3ccco3)CC1)CC(C)CC2", "note": "(stereo not shown) [Compound 58]", "values": [
      {"measurement": "ED50", "setting": "[2]", "value": 0.04, "unit": "mg/kg"},
      {"measurement": "ED50", "setting": "serotonin [3]; [4]", "value": 0.63, "unit": "mg/kg"}
    ]},
    {"smiles": "CCOC(=O)N1CCc2nc(NCCN3CCC(Nc4nc5ccccc5n4Cc4ccc(F)cc4)CC3)sc2C1", "note": "[Compound 147, ethyl 2-[[2-[4-[[1-[4-fluorophenyl)methyl]-1H-benzimidazol-2-yl]amino]-1-piperidinyl]ethyl]amino]-4,5-dihydro-thiazolo[4,5-d]pyridine-6(7H)-carboxylate (E)-2-butenedioate (1:2) monohydrate]", "values": [
      {"measurement": "ED50", "setting": "[2]", "value": 0.31, "unit": "mg/kg"},
      {"measurement": "ED50", "setting": "serotonin [3]; [4]", "value": 0.63, "unit": "mg/kg"}
    ]},
    {"smiles": "Cc1nc2ccccn2c(=O)c1CCN1CCC(Nc2nc3cccnc3n2Cc2ccccn2)CC1", "note": "[Compound 55]", "values": [
      {"measurement": "ED50", "setting": "[2]", "value": 0.08, "unit": "mg/kg"},
      {"measurement": "ED50", "setting": "serotonin [3]; [4]", "value": 0.16, "unit": "mg/kg"}
    ]},
    {"smiles": "O=c1[nH]c2ccccc2c(=O)n1CCN1CCC(Nc2nc3ccccc3n2Cc2ccco2)CC1", "note": "[Compound 24]", "values": [
      {"measurement": "ED50", "setting": "[2]", "value": 0.08, "unit": "mg/kg"},
      {"measurement": "ED50", "setting": "serotonin [3]; [4]", "value": 0.63, "unit": "mg/kg"}
    ]},
    {"smiles": "Fc1ccc(Cn2c(NC3CCN(Cc4cn5ccncc5n4)CC3)nc3ccccc32)cc1", "note": "[Compound 49]", "values": [
      {"measurement": "ED50", "setting": "[2]", "value": 0.16, "unit": "mg/kg"},
      {"measurement": "ED50", "setting": "serotonin [3]; [4]", "value": 0.63, "unit": "mg/kg"}
    ]},
    {"smiles": "Cc1nc2scc(C)n2c(=O)c1CCN1CCC(Nc2nc3ccccc3n2Cc2ccc(F)cc2)CC1", "note": "[Compound 1, 6-[2-[4-[[1-[(4-fluorophenyl)methyl]-1H-benzimidazol-2-yl]amino]-1-piperidinyl]ethyl]-3,7-dimethyl-5H-thiazolo[3,2-a]pyrimidin-5-one]", "values": [
      {"measurement": "ED50", "setting": "[2]", "value": 0.31, "unit": "mg/kg"},
      {"measurement": "ED50", "setting": "serotonin [3]; [4]", "value": 0.63, "unit": "mg/kg"}
    ]},
    {"smiles": "Cc1nc2n(c(=O)c1CCN1CCC(Nc3nc4ccccc4n3Cc3cscn3)CC1)CCCC2", "note": "[Compound 62]", "values": [
      {"measurement": "ED50", "setting": "[2]", "value": 0.04, "unit": "mg/kg"},
      {"measurement": "ED50", "setting": "serotonin [3]; Rattus norvegicus, po, 4 h, read-out: gastric lesion test ED50 (distension of the stomach and lesions in the glandular area completely absent in 50% of rats)", "value": 0.63, "unit": "mg/kg"}
    ]},
    {"smiles": "Fc1ccc(Cn2c(NC3CCN(CCNc4nc5cccnc5s4)CC3)nc3ccccc32)cc1", "note": "[Compound 103, N-[2-[4-[[1-[(4-fluorophenyl)methyl]-1H-benzimidazol-2-yl]amino]-1-piperidinyl]ethyl]thiazolo[5,4-b]pyridin-2-amine]", "values": [
      {"measurement": "ED50", "setting": "[2]", "value": 0.16, "unit": "mg/kg"},
      {"measurement": "ED50", "setting": "serotonin [3]; [4]", "value": 0.63, "unit": "mg/kg"}
    ]},
    {"smiles": "Cc1nc2n(c(=O)c1CCN1CCC(Nc3nc4ccccc4n3Cc3ccco3)CC1)CCS2", "note": "[Compound 18]", "values": [
      {"measurement": "ED50", "setting": "[2]", "value": 0.08, "unit": "mg/kg"},
      {"measurement": "ED50", "setting": "serotonin [3]; [4]", "value": 0.16, "unit": "mg/kg"}
    ]},
    {"smiles": "CN1CCC(=C2c3ccccc3C=Cc3ccccc32)CC1", "note": "[cyproheptadine]", "values": [
      {"measurement": "prevention of cyanosis of ears and extremities, lesions in the glandular area of the stomach and abnormal gastric distension", "setting": "serotonin [1]", "value": "prevent completely"}
    ]}
  ]
}
